Measured values: PMC6364417, “Kinase inhibitor library screening identifies synergistic drug combinations effective in sensitive and resistant melanoma cells” (Journal of Experimental & Clinical Cancer Research : CR, 2019)

What was measured:
Assay in all cases: Kinase inhibitor library screening, PrestoBlue cell viability, 1 or 10 μM, 72 h
A375 cells (parental) = conditions: A375 Parental
Experimental: (§1) After 72 h of treatment, cell viability was assessed using the PrestoBlue Cell Viability Reagent (ThermoFisher Scientific). Measurements were performed with the CLARIOstar Monochromator microplate reader (BMG Labtech).
(§2) Kinase inhibitor library screening. […] Each cell line was treated in its sensitive form (parental), and also as 2 resistant derivatives, which were made resistant to either Vemurafenib (XP) or Dabrafenib (GP). Drugs were added at 2 different concentrations, 1 and 10 μM, for 72 h and cell viability was assessed using the PrestoBlue Cell Viability assay. Results are depicted as % viability compared to untreated cells. Each cell line was analyzed at least in duplicate. […] (XLSX 95 kb)

[1] = test system: A375-XP cells (Vemurafenib-resistant); conditions: A375 XP
Experimental: as §1, §2

[2] = test system: IGR37-GP cells (Dabrafenib-resistant); conditions: IGR37 GP
Experimental: as §1, §2

[3] = test system: 501Mel-GP cells (Dabrafenib-resistant); conditions: 501Mel GP, in %; for Cell viability in kinase inhibitor library screening, 501Mel GP, 1μΜ / Cell viability in kinase inhibitor library screening, 501Mel GP, 10μΜ / cell viability, 501Mel GP, 1μΜ / cell viability, 501Mel GP, 10μΜ: 72 h
Experimental: as §1, §2

501Mel cells (parental) = conditions: 501Mel Parental, in %; for Cell viability in kinase inhibitor library screening, 501Mel Parental, 1μΜ / Cell viability in kinase inhibitor library screening, 501Mel Parental, 10μΜ: 72 h
Experimental: as §1, §2

[4] = test system: A375-GP cells (Dabrafenib-resistant); conditions: A375 GP
Experimental: as §1, §2

[5] = test system: IGR37-XP cells (Vemurafenib-resistant); conditions: IGR37 XP; for Cell viability in kinase inhibitor library screening, IGR37 XP, 10μΜ / Cell viability in kinase inhibitor library screening, IGR37 XP, 1μΜ / cell viability, IGR37 XP, 10μΜ / cell viability, IGR37 XP, 1μΜ: 72 h; for Cell viability in kinase inhibitor library screening, IGR37 XP, 1μΜ / cell viability (kinase inhibitor library screening) / cell viability, IGR37 XP, 1μΜ: in %
Experimental: as §1, §2

[6] = test system: 501Mel-XP cells (Vemurafenib-resistant); conditions: 501Mel XP, in %
Experimental: as §1, §2

IGR37 cells (parental) = conditions: IGR37 Parental, 72 h, in %
Experimental: as §1, §2

| Compound | Cell viability in kinase inhibitor library screening, IGR37 GP, 10μΜ ([2]; 72 h) [%] | Cell viability in kinase inhibitor library screening, 501Mel GP, 1μΜ ([3]; 1μΜ) | Cell viability in kinase inhibitor library screening, 501Mel GP, 10μΜ ([3]; 10μΜ) | Cell viability in kinase inhibitor library screening, 501Mel Parental, 1μΜ (501Mel cells (parental); 1μΜ) | Cell viability in kinase inhibitor library screening, 501Mel Parental, 10μΜ (501Mel cells (parental)) | Cell viability in kinase inhibitor library screening, IGR37 XP, 10μΜ ([5]; 10μΜ) [%] | Cell viability in kinase inhibitor library screening, IGR37 XP, 1μΜ ([5]; 1μΜ) | Cell viability in kinase inhibitor library screening, 501Mel XP, 1μΜ ([6]; 1μΜ, 72 h) | cell viability, A375 Parental, 10μΜ (A375 cells (parental); 10μΜ, 72 h, in %) | cell viability, A375 XP, 1μΜ ([1]; 1μΜ, 72 h, in %) | cell viability, IGR37 Parental, 10μΜ (IGR37 cells (parental); 10μΜ) | cell viability, IGR37 GP, 10μΜ ([2]; 72 h) [%] | cell viability, IGR37 GP, 1μΜ ([2]; 1μΜ, 72 h, in %) | cell viability, 501Mel GP, 1μΜ ([3]; 1μΜ) | cell viability, 501Mel GP, 10μΜ ([3]; 10μΜ) | cell viability, A375 GP, 1μΜ ([4]; 1μΜ, 72 h, in %) | cell viability, IGR37 XP, 10μΜ ([5]; 10μΜ) [%] | cell viability, IGR37 XP, 1μΜ ([5]; 1μΜ) | cell viability, 501Mel XP, 1μΜ ([6]; 1μΜ, 72 h) | cell viability, 501Mel XP, 10μΜ ([6]; 10μΜ, 72 h) | also measured |
| --- | --- | --- | --- | --- | --- | --- | --- | --- | --- | --- | --- | --- | --- | --- | --- | --- | --- | --- | --- | --- | --- |
| O=c1c(O)c(-c2ccc(O)c(O)c2)oc2cc(O)cc(O)c12 [Quercetin (Sophoretin)] | 78.8 | 98.5 | 87.4 | 99.7 | 94.0 | 58.7 | 99.1 | 90.4 | – | – | – | – | – | – | – | – | – | – | – | – | Cell viability in kinase inhibitor library screening, A375 Parental, 10μΜ (A375 cells (parental); 10μΜ, 72 h): 94.2; Cell viability in kinase inhibitor library screening, A375 Parental, 1μΜ (A375 cells (parental); 1μΜ, 72 h): 97.7; Cell viability in kinase inhibitor library screening, A375 XP, 10μΜ ([1]; 10μΜ, 72 h): 96.9; Cell viability in kinase inhibitor library screening, A375 GP, 10μΜ ([4]; 10μΜ, 72 h): 87.9; Cell viability in kinase inhibitor library screening, 501Mel XP, 10μΜ ([6]; 10μΜ, 72 h): 65.0 |
| Cc1[nH]c(/C=C2\C(=O)Nc3ccccc32)c(C)c1CCC(=O)O [TSU-68] | – | – | – | – | – | – | – | – | – | – | – | – | – | – | – | – | – | – | – | – | cell viability (kinase inhibitor library screening) (A375 cells (parental); 1μΜ, in %): 114.1; cell viability (kinase inhibitor library screening) (A375 cells (parental); 10μΜ, in %): 107.4; cell viability (kinase inhibitor library screening) ([1]; 1μΜ, in %): 108.6; cell viability (kinase inhibitor library screening) ([1]; 10μΜ, in %): 103.8; cell viability (kinase inhibitor library screening) ([2]; 1μΜ, in %): 97.4; cell viability (kinase inhibitor library screening) ([3]; 1μΜ): 108.8; cell viability (kinase inhibitor library screening) ([3]; 10μΜ): 99.1; cell viability (kinase inhibitor library screening) (501Mel cells (parental); 1μΜ): 103.3; cell viability (kinase inhibitor library screening) ([4]; 1μΜ, in %): 113.8; cell viability (kinase inhibitor library screening) ([4]; 10μΜ, in %): 94.6; cell viability (kinase inhibitor library screening) ([5]; 1μΜ): 95.2; cell viability (kinase inhibitor library screening) ([5]; 10μΜ): 76.8; cell viability (kinase inhibitor library screening) ([6]; 1μΜ): 99.9; cell viability (kinase inhibitor library screening) ([6]; 10μΜ): 80.9 |
| C[C@@H]1CCN(C(=O)CC#N)C[C@@H]1N(C)c1ncnc2[nH]ccc12 [Tofacitinib (CP-690550, Tasocitinib)] | – | – | – | – | – | – | – | – | 97.3 | 103.8 | 104.5 | 95.3 | 97.9 | 104.8 | 94.8 | 103.9 | 71.2 | 96.7 | 94.3 | 92.6 | cell viability, A375 Parental, 1μΜ (A375 cells (parental); 1μΜ, 72 h, in %): 104.5; cell viability, A375 XP, 10μΜ ([1]; 10μΜ, 72 h, in %): 103.6; cell viability, IGR37 Parental, 1μΜ (IGR37 cells (parental); 1μΜ): 108.6; cell viability, A375 GP, 10μΜ ([4]; 10μΜ, 72 h, in %): 97.7 |
| C[C@@H]1CCN(C(=O)CC#N)C[C@@H]1N(C)c1ncnc2[nH]ccc12.O=C(O)CC(O)(CC(=O)O)C(=O)O [Tofacitinib citrate (CP-690550 citrate)] | – | – | – | – | – | – | – | – | 93.7 | 103.3 | 107.1 | 94.9 | 98.3 | 103.5 | 93.7 | 103.6 | 83.2 | 104.3 | 94.0 | 90.7 | – |
| O=C(O)c1ccc2c(c1)nc(Nc1cccc(Cl)c1)c1ccncc12 [cx-4945 (Silmitasertib)] | 55.9 | 93.9 | 31.8 | 96.6 | 52.6 | 23.6 | 96.8 | 88.6 | – | – | – | – | – | – | – | – | – | – | – | – | Cell viability in kinase inhibitor library screening, IGR37 Parental, 10μΜ (IGR37 cells (parental); 10μΜ): 86.7; Cell viability in kinase inhibitor library screening, IGR37 GP, 1μΜ ([2]; 1μΜ, 72 h, in %): 94.1; Cell viability in kinase inhibitor library screening, A375 GP, 1μΜ ([4]; 1μΜ, 72 h): 93.2 |
